# According to patent publication US8735387B2, “Oxazolopyrimidines as Edg-1 receptor agonists” (Sanofi, priority 2008, dated 2014):
# Target: T1, human Edg-1 receptor (Homo sapiens, UniProt P21453)
# T1 construct: expressed in transfected cells; membrane preparation
# Assay: GTP-γ-S assay using human Edg-1 receptors (scintillation proximity assay, membrane preparation from CHO Flp-In cell line)
# Type: biochemical
# Details: example compound at 10 μM; relative to 10 μM S1P; GTP-γ-S SPA, human Edg-1 membranes
# Description: Determination of the Pharmacological Activity A) GTP-γ-S Assay Using Human Edg-1 Receptors
# In order to determine the Edg-1 receptor activation by the compounds of the invention, a GTP-γ-S (guanosine 5′-[γ-thio]triphosphate) assay for G-protein coupled receptor binding based on the scintillation proximity assay principle was used, employing a cell membrane preparation from a CHO Flp-In cell line which constitutively overexpresses the human Edg-1 receptor.
# The Flp-In™ expression system (Invitrogen, cat. no. K6010-01) allows the generation of stable mammalian cell lines into which the gene of interest has been integrated through homologous recombination at a specific genomic location called Flp Recombination Target (FRT) site by means of a Flp recombinase encoded by the pOG44 expression plasmid. The integration of the pcDNA5/FRT expression construct into the Flp-In host cell line genome results in the transcription of the gene of interest. The stably transfected cells become hygromycin-resistant.
# One day prior to transfection, 200 000 Flp-In-CHO cells were seeded in Ham F-12 medium (Invitrogen, cat. no. 31765) supplemented with 10% fetal calf serum (FCS; Perbio Science, cat. no. SH30068.03) in a 6-well plate and incubated at 37° C./5% CO2 overnight. Using the FuGENE® 6 transfection reagent (Roche, cat. no. 11988387001), cells were cotransfected with the Flp recombinase expression plasmid pOG44 and a modified plasmid additionally containing the edg-1 gene (accession no. NM_001400) termed as pcDNA5-FRT-TO_nFLAG_DEST-EDG-1 with a 9:1 ratio. To obtain the modified pcDNA5-FRT-TO_nFLAG_DEST plasmid, the Invitrogen plasmid pcDNA5/FRT/TO (Invitrogen, cat. no. V6520-20) was adapted to the Gateway® (Invitrogen) cloning system by inserting a Gateway cassette containing attR recombination sites flanking a ccdB gene and a chloramphenicol-resistance gene (Gateway conversion system, Invitrogen, cat. no. 11828-029). In addition a FLAG tag epitope was added before the 5′ att recombination site to allow recombinant expression of N-terminally FLAG-tagged proteins.
# For the transfection of one well, 1.08 μg of pOG44 and 0.12 μg of pcDNA5-FRT-TO_nFLAG_DEST-EDG-1 were mixed to 100 μl of serum-free Ham F-12 medium containing 6 μl of FuGENE® 6 transfection reagent. After 20 min of incubation, the transfection reagent/DNA complex was distributed dropwise on the cells. The cells were incubated for 24 h at 37° C. Then the cells from 3 wells each were transferred to a T75 flask (Greiner Cellstar®, cat. no. 658175) containing Ham F-12 medium supplemented with 10% of FCS but without antibiotic and were incubated another 24 h. 48 h after transfection, the medium was replaced by selection medium (Ham F-12 supplemented with 10% of FCS and 300 μg/ml of hygromycin B (Invitrogen, cat. no. 10687-010)). The medium was exchanged every 2 to 3 days until a resistant population of cells had grown. […] After 2 weeks of selection, the cells were transferred into T175 flasks (Greiner Cellstar®, cat. no. 660175) and cultivated for batch production. Cells were harvested from the culture flasks by short treatment (2 to 5 min) with Accutase (PAA, cat. no. L11-007), resuspended in selection medium (see above) and centrifuged at 200×g for 5 min. Cells were resuspended in a mixture of 90% of FCS and 10% of dimethylsulfoxide and stored frozen in liquid nitrogen.
# A membrane preparation was obtained by standard methods from the afore-described CHO Flp-In cell line constitutively overexpressing the human Edg-1 receptor. Briefly, the cryopreserved cells were taken in culture and grown until confluency in T175 cell culture flasks (Becton Dickinson, cat. no. 35 5001). […]
# T1 sequence (P21453 whole entry): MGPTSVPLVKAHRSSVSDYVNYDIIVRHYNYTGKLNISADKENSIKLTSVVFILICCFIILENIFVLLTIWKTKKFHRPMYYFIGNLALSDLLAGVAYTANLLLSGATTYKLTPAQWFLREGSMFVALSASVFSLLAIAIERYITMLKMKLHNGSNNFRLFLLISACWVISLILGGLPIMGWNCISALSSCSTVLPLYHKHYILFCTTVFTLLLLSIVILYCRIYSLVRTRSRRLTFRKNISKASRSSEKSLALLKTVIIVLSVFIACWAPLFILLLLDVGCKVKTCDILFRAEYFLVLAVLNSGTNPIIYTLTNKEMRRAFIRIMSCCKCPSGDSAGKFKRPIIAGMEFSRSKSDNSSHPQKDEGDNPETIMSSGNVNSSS
row,SMILES,% Activation (Edg-1 receptor activation in percent of the activation by 10 μM S1P) [%]
1,CCCOc1nc(CCc2ccc(Cl)cc2)nc2oc(-c3cccc(F)c3)nc12 [Example 6],60
2,Fc1cccc(-c2nc3c(OCC4CC4)nc(CCc4ccc(Cl)cc4)nc3o2)c1 [Example 7],23
3,CCCOc1nc(C(C)c2ccccc2)nc2oc(-c3cccc(F)c3)nc12 (stereo not drawn) [Example 14],97
4,Cc1cccc(-c2nc3c(OCC4CC4)nc(C(C)c4ccccc4)nc3o2)c1 (stereo not drawn) [Example 16],106
5,CCCOc1nc(CN2CCC(F)(F)CC2)nc2oc(-c3cc(F)ccc3Cl)nc12 [Example 22],95
6,CCCOc1nc(CN2CCC(F)(F)CC2)nc2oc(-c3cccc(Cl)c3)nc12 [Example 28],102
7,CCCOc1nc(CN2CCC(F)(F)CC2)nc2oc(-c3cccc(F)c3)nc12 [Example 33],93
8,CCCOc1nc(CN2CCC(F)(F)CC2)nc2oc(-c3cccc(OC)c3)nc12 [Example 36],127

# Now from value to compound:
row,% Activation (Edg-1 receptor activation in percent of the activation by 10 μM S1P) [%],SMILES
1,97,CCCOc1nc(CN2CCCOCC2)nc2oc(-c3cc(F)ccc3Cl)nc12 [Example 23]
2,115,CCCOc1nc(CN2CCOCC2)nc2oc(-c3cc(F)cc(F)c3)nc12 [Example 24]
3,117,CCCOc1nc(CN2CCC(F)(F)CC2)nc2oc(-c3cc(F)cc(F)c3)nc12 [Example 25]
4,123,CCCOc1nc(CN2CCCOCC2)nc2oc(-c3cc(F)cc(F)c3)nc12 [Example 26]
5,124,CCCOc1nc(CN2CCOCC2)nc2oc(-c3cccc(Cl)c3)nc12 [Example 27]
6,118,CCCOc1nc(CN2CCCOCC2)nc2oc(-c3cccc(Cl)c3)nc12 [Example 29]
7,114,CCCOc1nc(CN2CCOCC2)nc2oc(-c3cccc(F)c3)nc12 [Example 30]
8,59,FCCCOc1nc(CN2CCOCC2)nc2oc(-c3cccc(F)c3)nc12 [Example 31]
9,42,FCCOc1nc(CN2CCOCC2)nc2oc(-c3cccc(F)c3)nc12 [Example 32]
10,90,CCCOc1nc(CN2CCCOCC2)nc2oc(-c3cccc(F)c3)nc12 [Example 34]
11,119,CCCOc1nc(CN2CCOCC2)nc2oc(-c3cccc(OC)c3)nc12 [Example 35]
12,116,CCCOc1nc(CN2CCCOCC2)nc2oc(-c3cccc(OC)c3)nc12 [Example 37]
13,114,CCCOc1nc(CN2CCOCC2)nc2oc(-c3cccc(C)c3)nc12 [Example 38]
14,82,CCCOc1nc(CN2CCOCC2)nc2oc(-c3cncc(F)c3)nc12 [Example 39]

# Same assay, conditions: example compound at 10 μM; relative to 10 μM S1P; GTP-γ-S SPA, human Edg-1 membranes; read-out: % Activation (Edg-1 receptor activation in percent of the activation by 10 μM S1P)
row,SMILES,activation at 10 µM [%]
1,"CCCOc1nc(CN2CCOCC2)nc2oc(-c3ccco3)nc12 [Example 2, 2-Furan-2-yl-5-morpholin-4-ylmethyl-7-propoxy-oxazolo[5,4-d]pyrimidine]",80
2,"CCCOc1nc(CN2CCOCC2)nc2oc(-c3ccc(Br)o3)nc12 [Example 3, 2-(5-Bromo-furan-2-yl)-5-morpholin-4-ylmethyl-7-propoxy-oxazolo[5,4-d]pyrimidine]",113
3,"CCCOc1nc(Cc2ccc(Cl)cc2)nc2oc(-c3cccc(F)c3)nc12 [Example 5, 5-(4-Chloro-benzyl)-2-(3-fluoro-phenyl)-7-propoxy-oxazolo[5,4-d]pyrimidine]",98
4,"CCCOc1nc(CCc2ccc(OC)cc2)nc2oc(-c3cccc(C)c3)nc12 [Example 8, 5-[2-(4-methoxy-phenyl)-ethyl]-2-(3-methyl-phenyl)-7-propoxy-oxazolo[5,4-d]pyrimidine]",51
5,"Cc1cccc(-c2nc3c(OCC4CC4)nc(CC(C)(C)c4ccccc4)nc3o2)c1 [Example 9, 7-Cyclopropylmethoxy-5-(2-methyl-2-phenyl-propyl)-2-(3-methyl-phenyl)-oxazolo[5,4-d]pyrimidine]",37
6,"CCCOc1nc(C2(c3ccc(Cl)cc3)CC2)nc2oc(-c3cccc(C)c3)nc12 [Example 10, 5-[1-(4-Chloro-phenyl]-cyclopropyl]-7-propoxy-2-(3-methyl-phenyl)-oxazolo[5,4-d]pyrimidine]",66
7,"CCCOc1nc(Cc2ccc(Cl)c(Cl)c2)nc2oc(-c3cccc(C)c3)nc12 [Example 11, 5-(3,4-Dichloro-benzyl)-7-propoxy-2-(3-methyl-phenyl)-oxazolo[5,4-d]pyrimidine]",39
8,"CCCOc1nc(Cc2ccc(C(F)(F)F)cc2)nc2oc(-c3cccc(F)c3)nc12 [Example 12, 2-(3-Fluoro-phenyl)-7-propoxy-5-(4-trifluoromethyl-benzyl)-oxazolo[5,4-d]pyrimidine]",65
9,"CCCOc1nc(C(C)c2ccccc2)nc2oc(-c3cccc(C)c3)nc12 (stereo not drawn) [Example 13, 5-(1-Phenyl-ethyl)-7-propoxy-2-(3-methyl-phenyl)-oxazolo[5,4-d]pyrimidine]",119
10,"CCOc1nc(C(C)c2ccccc2)nc2oc(-c3cccc(F)c3)nc12 (stereo not drawn) [Example 15, 7-ethoxy-2-(3-fluoro-phenyl)-5-(1-phenyl-ethyl)-oxazolo[5,4-d]pyrimidine]",104
11,"CCCOc1nc(Cc2ccc(Cl)cc2)nc2oc(-c3cc(C)c(O)c(C)c3)nc12 [Example 17, 4-[5-(4-Chloro-benzyl)-7-propoxy-oxazolo[5,4-d]pyrimidin-2-yl]-2,6-dimethyl-phenol]",74
12,"CCCOc1nc(Cc2ccc(Cl)cc2)nc2oc(-c3cc(C)c(OCC(O)CO)c(C)c3)nc12 (stereo not drawn) [Example 18, 3-{4-[5-(4-Chloro-benzyl)-7-propoxy-oxazolo[5,4-d]pyrimidin-2-yl]-2,6-dimethyl-phenoxy}-propane-1,2-diol]",128
13,"CCCOc1nc(Cc2ccc(Cl)cc2)nc2oc(-c3cc(C)c(OCCO)c(C)c3)nc12 [Example 19, 2-{4-[5-(4-Chloro-benzyl)-7-propoxy-oxazolo[5,4-d]pyrimidin-2-yl]-2,6-dimethyl-phenoxy}-ethanol]",102
14,"CCCOc1nc(Cc2ccc(Cl)cc2)nc2oc(-c3cc(C)c(OCC(O)CN)c(C)c3)nc12 (stereo not drawn) [Example 20, 1-Amino-3-{4-[5-(4-chloro-benzyl)-7-propoxy-oxazolo[5,4-d]pyrimidin-2-yl]-2,6-dimethyl-phenoxy}-propan-2-ol]",299
15,"CCCOc1nc(Cc2ccc(Cl)cc2)nc2oc(-c3cccc(N)c3)nc12 [Example 21, 3-[5-(4-Chloro-benzyl)-7-propoxy-oxazolo[5,4-d]pyrimidin-2-yl]-phenylamine]",71

# The next lines start with the values.
row,activation at 10 µM [%],SMILES
1,117,"CCCOc1nc(CN2CCOCC2)nc2oc(-c3cc(F)ccc3Cl)nc12 [Example 1, 2-(2-Chloro-5-fluoro-phenyl)-5-morpholin-4-ylmethyl-7-propoxy-oxazolo[5,4-d]pyrimidine]"
2,105,"CCCOc1nc(CN2CCOCC2)nc2oc(-c3cccc(O)c3)nc12 [Example 4, 3-(5-Morpholin-4-ylmethyl-7-propoxy-oxazolo[5,4-d]pyrimidin-2-yl)-phenol]"
